Source: US20060111305A1, “Metabolites of certain [1,4]diazepino[6,7,1-ij]quinoline derivatives and methods of preparation and use thereof” (Wyeth, priority 2004, published 2006)
Like-named read-outs stand apart in the source and are kept apart here.

Experiments:
[1] = Metabolites of DCDQ generated by liver microsomes and hepatocytes, LC/MS characterization (Table 6); format: in vitro ADME; conditions: MM mouse, RM rat, DM dog, HM human liver microsomes; HH human hepatocytes
Excerpt: An Agilent Model 1100 HPLC system (Agilent Technologies, Palo Alto, Calif.) including an autosampler and diode array UV detector was used for LC/MS analysis. The UV detector was set to monitor 200 to 400 nm. For selected LC/MS analysis, radiochromatograms were acquired using a β-Ram model 3 radioactivity flow detector (IN/US Systems Inc., Tampa, Fla.) equipped with a solid scintillant flow cell. Separations were accomplished on a Phenomenex Luna C18(2) column (2×150 mm, 5 μm) under the same conditions as described above.
The mass spectrometer used for metabolite characterization was a Micromass Q-TOF-2 quadrupole time-of-flight hybrid mass spectrometer ([…].). The mass spectrometer was equipped with an electrospray ionization (ESI) interface and operated in the positive ionization mode. Collision energy settings of 5 and 30 eV were used for full MS and MS/MS scans, respectively. Settings for the mass spectrometer are listed below.
Mass spectra were obtained by LC/MS and LC/MS/MS analysis for DCDQ and its metabolites.

[2] = Dog plasma metabolite profiles after single 15 mg/kg oral capsule of [14C]DCDQ; format: in vivo, beagle dogs; conditions: for concentration at 2 h / concentration at 4 h / concentration at 8 h / concentration at 48 h / concentration at 24 h: male, beagle, dog, plasma, oral, 15 mg/kg, read-out: Estimated plasma concentration in dogs
Method: (§1) For plasma profiles, a TopCount NXT radiometric microplate reader (Perkin Elmer) was used to analyze the radioactivity in collected HPLC fractions. The limit of detection by TopCount was about 1 ng equivalent/mL. A Flo-One β Model A525 radioactivity detector (Perkin Elmer) with a 250 μL LQTR flow cell was used to acquire data for urine and fecal samples. The flow rate of Ultima Flow M scintillation fluid was 1 mL/min, providing a mixing ratio of scintillation cocktail to mobile phase of 5:1. The limits of detection by Flo-One detector were about 200 ng equivalents/mL for urine and 12 ng equivalents/g for feces.
Plasma samples were analyzed for metabolite profiles by HPLC. Aliquots of plasma were mixed with two volumes of cold methanol containing 0.1% trifluoroacetic acid (TFA), placed on ice for about 2 minutes and then centrifuged. The supernatant fluid was transferred to a clean tube and evaporated at 22° C. under nitrogen in a Zymark TurboVap LV (Caliper Life Sciences, Hopkinton, Mass.) to a volume of about 0.3 mL. The residue was centrifuged, the supernatant volume measured and extraction efficiency determined by analysis of duplicate 20 μL aliquots for radioactivity. A 200 μL aliquot of the supernatant was injected onto the HPLC column and the effluent was collected at 20 second intervals into 96-well Lumaplates (Perkin Elmer). The plates were dried overnight in an oven at 40° C. and analyzed by a TopCount. Plasma extracts were also analyzed by LC/MS.
(§2) A Waters model 2690 HPLC system (Waters Corp., Milford, Mass.) with a built-in autosampler was used for analysis. Separations were accomplished on a Phenomenex Luna C18(2) column (150×2.0 mm, 5 μm) (Phenomenex, Torrance, Calif.). The sample chamber of the autosampler was maintained at 4° C., while the column was at ambient temperature of about 20° C. A variable wavelength UV detector set to monitor 250 nm and a Flo-One β Model A525 radioactivity detector were used for data acquisition. The HPLC mobile phase consisted of 10 mM ammonium acetate, pH 4.5 (A) and acetonitrile (B), and was delivered at 0.2 mL/min. Chromatographic condition A was used for dose analysis, while condition B was used for analysis of urine and plasma, brain and fecal extracts.

[3] = Dog urinary excretion and metabolite profiles after oral capsule of [14C]DCDQ; format: in vivo, beagle dogs
Method: Blood samples were collected from the jugular vein at 2, 4, 8, 24 and 48 hour after dose administration into tubes containing potassium EDTA as the anticoagulant and then placed on ice. Aliquots of 50 μL were removed for combustion and determination of radioactivity content. Plasma was immediately obtained from the remaining blood by centrifugation at 4° C. Urine samples were collected into tubes on dry ice at intervals of 0-8, 8-24 and 24-48 hour post-dose. Fecal samples were collected at intervals of 0-8, 8-24 and 24-48 hour post-dose at room temperature, and were homogenized. The biological specimens were stored at approximately −70° C. until analysis.
as §1
Urine was analyzed for radioactivity concentration and analyzed by HPLC with radioactivity flow detection for metabolite profiles by direct injection to the HPLC column. LC/MS analyses for metabolite identification were also carried out with urine samples.
as §2

[4] = 0-8 hr, dog no. not printed (dog 1 by footnote a)

Row | Structure (SMILES) | Source [1] | Chromatographic distribution of radioactivity in dog plasma ([2]; 2 hr, dog 2) [%] | Chromatographic distribution of radioactivity in dog plasma ([2]; 4 hr, dog 1) [%] | Chromatographic distribution of radioactivity in dog plasma ([2]; 4 hr, dog 2) [%] | Chromatographic distribution of radioactivity in dog plasma ([2]; 8 hr, dog 1) [%] | Estimated plasma concentration in dogs ([2]; 8 hr, dog 2) | Estimated plasma concentration in dogs ([2]; 8 hr, dog 3) | Estimated plasma concentration in dogs ([2]; 24 hr, dog 3) | Estimated plasma concentration in dogs ([2]; 48 hr, dog 1) | Estimated plasma concentration in dogs ([2]; 48 hr, dog 3) | concentration at 2 h ([2]; 2 hr, dog 2) [ng/mL] | concentration at 4 h ([2]; 4 hr, dog 1) [ng/mL] | concentration at 4 h ([2]; 4 hr, dog 2) [ng/mL] | concentration at 8 h ([2]; 8 hr, dog 1) [ng/mL] | Chromatographic distribution of radioactivity in dog urine ([3]; 24-48 hr, dog 1) [%] | Chromatographic distribution of radioactivity in dog urine ([3]; 24-48 hr, dog 2) [%] | Chromatographic distribution of radioactivity in dog plasma ([2]; 24 hr, dog 1) [%] | Chromatographic distribution of radioactivity in dog plasma ([2]; 24 hr, dog 2) [%] | concentration at 24 h ([2]; 24 hr, dog 1) [ng/mL] | concentration at 24 h ([2]; 24 hr, dog 2) [ng/mL] | further results
1 | [O-][N+]12CCN=Cc3cccc(c31)[C@H]1CCC[C@H]1C2 (stereo partly shown) [Metabolite M5, DCDQ imine N-oxide] | DM, HM, HH | 2.9 | 6.6 | 5.3 | 4.0 | BQL | BQL | BQL | BQL | BQL | 36.4 | 33.1 | 86.6 | 21.7 | 8.5 | 4.0 | – | – | – | – | Chromatographic distribution of radioactivity in dog plasma ([2]; 2 hr, dog 1): 12%; Estimated plasma concentration in dogs ([2]; 24 hr, dog 1): BQL; Estimated plasma concentration in dogs ([2]; 24 hr, dog 2): BQL; Chromatographic distribution of radioactivity in dog plasma ([2]; 48 hr, dog 2): 2.8%; concentration at 2 h ([2]; 2 hr, dog 1): 43.1 ng/mL; concentration at 48 h ([2]; 48 hr, dog 2): 18.9 ng/mL; Chromatographic distribution of radioactivity in dog urine [3, 4]: 5.9%
2 | O=C1CC[C@@H]2c3cccc4c3N(CCNC4)C[C@H]12 [Metabolite M7, 17-keto DCDQ] | – | – | 6.9 | 7.8 | – | BQL | BQL | BQL | BQL | BQL | – | 34.5 | 127 | – | 5.0 | 6.2 | 13 | 6.7 | 202 | 73.6 | Estimated plasma concentration in dogs ([2]; 2 hr, dog 1): BQL; Estimated plasma concentration in dogs ([2]; 2 hr, dog 2): BQL; Estimated plasma concentration in dogs ([2]; 8 hr, dog 1): BQL; Estimated plasma concentration in dogs ([2]; 48 hr, dog 2): BQL; Chromatographic distribution of radioactivity in dog urine ([3]; 24-48 hr, Mean): 5.9%; Chromatographic distribution of radioactivity in dog urine ([3]; 24-48 hr, dog 3): 9.2%; Chromatographic distribution of radioactivity in dog urine ([3]; 24-48 hr, dog 4): 3.4%
3 | OC1CN2C[C@@H]3CCC[C@@H]3c3cccc(c32)CN1 (stereo partly shown) [Metabolite M1, hydroxy DCDQ] | HM, HH | 2.6 | 8.0 | 4.9 | 8.0 | – | – | – | – | BQL | 32.9 | 40 | 80.9 | 43.3 | 4.4 | 7.6 | 6.8 | 2.1 | 104 | 23 | Chromatographic distribution of radioactivity in dog plasma ([2]; 2 hr, dog 1): 8.4%; Chromatographic distribution of radioactivity in dog plasma ([2]; 8 hr, dog 2): 4.7%; Chromatographic distribution of radioactivity in dog plasma ([2]; 8 hr, dog 3): 9.7%; Chromatographic distribution of radioactivity in dog plasma ([2]; 24 hr, dog 3): 6.4%; Chromatographic distribution of radioactivity in dog plasma ([2]; 48 hr, dog 1): 12%; Chromatographic distribution of radioactivity in dog plasma ([2]; 48 hr, dog 2): 6.7%; concentration at 2 h ([2]; 2 hr, dog 1): 30.1 ng/mL; concentration at 8 h ([2]; 8 hr, dog 2): 61.9 ng/mL; concentration at 8 h ([2]; 8 hr, dog 3): 24.8 ng/mL; concentration at 24 h ([2]; 24 hr, dog 3): 125 ng/mL; concentration at 48 h ([2]; 48 hr, dog 1): 58 ng/mL; concentration at 48 h ([2]; 48 hr, dog 2): 44.7 ng/mL; Chromatographic distribution of radioactivity in dog urine ([3]; 8-24 hr, Mean): 6.6%; Chromatographic distribution of radioactivity in dog urine ([3]; 8-24 hr, dog 1): 8.3%; Chromatographic distribution of radioactivity in dog urine ([3]; 8-24 hr, dog 2): 4.7%; Chromatographic distribution of radioactivity in dog urine ([3]; 8-24 hr, dog 3): 6.7%; Chromatographic distribution of radioactivity in dog urine ([3]; 24-48 hr, Mean): 5.7%; Chromatographic distribution of radioactivity in dog urine ([3]; 24-48 hr, dog 3): 7.6%; Chromatographic distribution of radioactivity in dog urine ([3]; 24-48 hr, dog 4): 3.2%
4 | O=C(O)[C@H]1O[C@@H](OC(=O)N2CCN3C[C@@H]4CCC[C@@H]4c4cccc(c43)C2)[C@H](O)[C@@H](O)[C@@H]1O [Metabolite M6, carbamoyl glucuronide of DCDQ] | DM, HM, HH | 19 | – | 13 | 7.0 | BQL | BQL | BQL | BQL | BQL | 239 | – | 215 | 37.9 | 5.8 | 3.5 | 17 | 5.6 | 258 | 62.1 | Estimated plasma concentration in dogs ([2]; 2 hr, dog 1): BQL; Estimated plasma concentration in dogs ([2]; 4 hr, dog 1): BQL; Estimated plasma concentration in dogs ([2]; 48 hr, dog 2): BQL; Chromatographic distribution of radioactivity in dog urine [3, 4]: 13%; Chromatographic distribution of radioactivity in dog urine ([3]; 8-24 hr, Mean): 5.8%; Chromatographic distribution of radioactivity in dog urine ([3]; 8-24 hr, dog 1): 6.1%; Chromatographic distribution of radioactivity in dog urine ([3]; 8-24 hr, dog 2): 7.6%; Chromatographic distribution of radioactivity in dog urine ([3]; 8-24 hr, dog 3): 3.6%; Chromatographic distribution of radioactivity in dog urine ([3]; 24-48 hr, Mean): 4.7%; Chromatographic distribution of radioactivity in dog urine ([3]; 24-48 hr, dog 3): 4.3%; Chromatographic distribution of radioactivity in dog urine ([3]; 24-48 hr, dog 4): 5.9%
